Measured values reported in US20220251141A1, “IMMUNOMODULATORS” (Bristol-Myers Squibb Company, priority 2019, published 2022).
pIC50: −log10 of the molar value. Numbered stars: 1 amine (or outer) side, 2 acyl side, 3 side chain; on linkers, the order of the positions; unused ones are H or OH. Bridge positions count the residues as written; N and C are the ends. Square brackets hold non-standard residues; d marks the D form. Side chains are listed from the residue outwards. Peptide text beside a SMILES is read from it. * marks the point of attachment. Trp(1-CH2CO2Me) = COC(=O)Cn1cc(C[C@H](N)C(=O)O)c2ccccc21; Trp(1-CH2COOH) = N[C@@H](Cc1cn(CC(=O)O)c2ccccc12)C(=O)O; X5 = CN(C)S(=O)(=O)NCC[C@H](N[*:1])C(=O)[*:2]; X4 = CN(C)S(=O)(=O)NC[C@H](N[*:1])C(=O)[*:2]; X15 = CCNC(=S)NCC[C@H](N[*:1])C(=O)[*:2]; X12 = CNC(=S)NCC[C@H](N[*:1])C(=O)[*:2]; X14 = CCNC(=S)NC[C@H](N[*:1])C(=O)[*:2]; X11 = CNC(=S)NC[C@H](N[*:1])C(=O)[*:2]; Dab(CONH2) = NC(=O)NCC[C@H](N)C(=O)O; X9 = N#CNCC[C@H](N[*:1])C(=O)[*:2]; X8 = N#CNC[C@H](N[*:1])C(=O)[*:2]; Hyp = O=C(O)[C@@H]1C[C@@H](O)CN1; NMeNle = CCCC[C@H](NC)C(=O)O; NMeA = CN[C@@H](C)C(=O)O; Dab = NCC[C@H](N)C(=O)O; Dap = NC[C@H](N)C(=O)O; Boc = CC(C)(C)OC(=O)*; X10 = CC(C)(C)SC(=O)*; CO = O=C([*:1])[*:2]; Moc = COC(=O)*

The compounds below were run against T1, PD-1/PD-L1 (Homo sapiens, UniProt Q9NZQ7) (assay: PD-1/PD-L1 Homogenous Time-Resolved Fluorescence (HTRF) binding assay). Settings: PD-L1-His 10 nM final, PD-1-Ig 20 nM final; inhibitors pre-incubated with PD-L1-His for 15 m.
T1 construct: TVMV protease site linker (C); made in house; host or cells: HEK293T cells
Excerpt: The ability of the compounds of formula (I) to bind to PD-L1 was investigated using a PD-1/PD-L1 Homogenous Time-Resolved Fluorescence (HTRF) binding assay.
The interaction of PD-1 and PD-L1 can be assessed using soluble, purified preparations of the extracellular domains of the two proteins. The PD-1 and PD-L1 protein extracellular domains were expressed as fusion proteins with detection tags, for PD-1, the tag was the Fc portion of Immunoglobulin (PD-1-Ig) and for PD-L1 it was the 6 histidine motif (PD-L1-His). All binding studies were performed in an HTRF assay buffer consisting of dPBS supplemented with 0.1% […] bovine serum albumin and 0.05% (v/v) Tween-20. For the h/PD-L1-His binding assay, inhibitors were pre-incubated with PD-L1-His (10 nM final) for 15 m in 4 μl of assay buffer, followed by addition of PD-1-Ig (20 nM final) in 1 μl of assay buffer and further incubation for 15 m. HTRF detection was achieved using europium cryptate-labeled anti-Ig (1 nM final) and allophycocyanin (APC) labeled anti-His (20 nM final). Antibodies were diluted in HTRF detection buffer and 5 μl was dispensed on top of the binding reaction. The reaction mixture was allowed to equilibrate for 30 minutes and the resulting signal (665 nm/620 nm ratio) was obtained using an EnVision fluorometer. Additional binding assays were established between the human proteins PD-1-Ig/PD-L2-His (20 & 5 nM, respectively) and CD80-His/PD-L1-Ig (100 & 10 nM, respectively).
Recombinant Proteins: Human PD-1 (25-167) with a C-terminal human Fc domain of immunoglobulin G (Ig) epitope tag [hPD-1 (25-167)-3S-IG] and human PD-L1 (18-239) with a C-terminal His epitope tag [hPD-L1(18-239)-TVMV-His] were expressed in HEK293T cells and purified sequentially by Protein A affinity chromatography and size exclusion chromatography. Human PD-L2-His and CD80-His was obtained through commercial sources.
Table 3 lists the IC50 values for representative examples of this disclosure measured in the PD-1/PD-L1 Homogenous Time-Resolved Fluorescence (HTRF) binding assay.

Structure (SMILES)	pIC50
CCCC[C@H]1C(=O)N(C)[C@@H](CCCC)C(=O)N[C@@H](CC(C)C)C(=O)N[C@H](C(=O)NCC(N)=O)CSCC(=O)N[C@@H](Cc2ccc(O)cc2)C(=O)N(C)[C@@H](C)C(=O)N[C@@H](CC(N)=O)C(=O)N2CCC[C@H]2C(=O)N[C@@H](CNC(=O)OC)C(=O)N[C@@H](CC(C)C)C(=O)N2C[C@H](O)C[C@H]2C(=O)N[C@@H](Cc2c[nH]c3ccccc23)C(=O)N[C@@H](CCNC(=O)OC)C(=O)N[C@@H](Cc2cn(CC(=O)OC)c3ccccc23)C(=O)N1C [Example 1017] ({CH2CO}-Y[NMeA]NP[Dap](Moc)L[Hyp]W[Dab](Moc)[Trp(1-CH2CO2Me)][NMeNle][NMeNle]LCG-NH2; thioether N-14)	8.23
CCCC[C@H]1C(=O)N(C)[C@@H](CCCC)C(=O)N[C@@H](CC(C)C)C(=O)N[C@H](C(=O)NCC(N)=O)CSCC(=O)N[C@@H](Cc2ccc(O)cc2)C(=O)N(C)[C@@H](C)C(=O)N[C@@H](CC(N)=O)C(=O)N2CCC[C@H]2C(=O)N[C@@H](CNC(=O)OC(C)(C)C)C(=O)N[C@@H](CC(C)C)C(=O)N2C[C@H](O)C[C@H]2C(=O)N[C@@H](Cc2c[nH]c3ccccc23)C(=O)N[C@@H](CCNC(N)=O)C(=O)N[C@@H](Cc2cn(CC(=O)O)c3ccccc23)C(=O)N1C [Example 1018] ({CH2CO}-Y[NMeA]NP[Dap](Boc)L[Hyp]W[Dab(CONH2)][Trp(1-CH2COOH)][NMeNle][NMeNle]LCG-NH2; thioether N-14)	8.54
CCCC[C@H]1C(=O)N(C)[C@@H](CCCC)C(=O)N[C@@H](CC(C)C)C(=O)N[C@H](C(=O)NCC(N)=O)CSCC(=O)N[C@@H](Cc2ccc(O)cc2)C(=O)N(C)[C@@H](C)C(=O)N[C@@H](CC(N)=O)C(=O)N2CCC[C@H]2C(=O)N[C@@H](CNC#N)C(=O)N[C@@H](CC(C)C)C(=O)N2C[C@H](O)C[C@H]2C(=O)N[C@@H](Cc2c[nH]c3ccccc23)C(=O)N[C@@H](CCNC#N)C(=O)N[C@@H](Cc2cn(CC(=O)O)c3ccccc23)C(=O)N1C [Example 1019] ({CH2CO}-Y[NMeA]NP[X8]L[Hyp]W[X9][Trp(1-CH2COOH)][NMeNle][NMeNle]LCG-NH2; thioether N-14)	8.92
CCCC[C@H]1C(=O)N(C)[C@@H](CCCC)C(=O)N[C@@H](CC(C)C)C(=O)N[C@H](C(=O)NCC(N)=O)CSCC(=O)N[C@@H](Cc2ccc(O)cc2)C(=O)N(C)[C@@H](C)C(=O)N[C@@H](CC(N)=O)C(=O)N2CCC[C@H]2C(=O)N[C@@H](CNC#N)C(=O)N[C@@H](CC(C)C)C(=O)N2C[C@H](O)C[C@H]2C(=O)N[C@@H](Cc2c[nH]c3ccccc23)C(=O)N[C@@H](CCNC#N)C(=O)N[C@@H](Cc2cn(CC(=O)OC)c3ccccc23)C(=O)N1C [Example 1020] ({CH2CO}-Y[NMeA]NP[X8]L[Hyp]W[X9][Trp(1-CH2CO2Me)][NMeNle][NMeNle]LCG-NH2; thioether N-14)	8.15
CCCC[C@H]1C(=O)N(C)[C@@H](CCCC)C(=O)N[C@@H](CC(C)C)C(=O)N[C@H](C(=O)NCC(N)=O)CSCC(=O)N[C@@H](Cc2ccc(O)cc2)C(=O)N(C)[C@@H](C)C(=O)N[C@@H](CC(N)=O)C(=O)N2CCC[C@H]2C(=O)N[C@@H](CNC#N)C(=O)N[C@@H](CC(C)C)C(=O)N2C[C@H](O)C[C@H]2C(=O)N[C@@H](Cc2c[nH]c3ccccc23)C(=O)N[C@@H](CCN)C(=O)N[C@@H](Cc2cn(CC(=O)O)c3ccccc23)C(=O)N1C [Example 1021] ({CH2CO}-Y[NMeA]NP[X8]L[Hyp]W[Dab][Trp(1-CH2COOH)][NMeNle][NMeNle]LCG-NH2; thioether N-14)	7.28
CCCC[C@H]1C(=O)N(C)[C@@H](CCCC)C(=O)N[C@@H](CC(C)C)C(=O)N[C@H](C(=O)NCC(N)=O)CSCC(=O)N[C@@H](Cc2ccc(O)cc2)C(=O)N(C)[C@@H](C)C(=O)N[C@@H](CC(N)=O)C(=O)N2CCC[C@H]2C(=O)N[C@@H](CNS(=O)(=O)N(C)C)C(=O)N[C@@H](CC(C)C)C(=O)N2C[C@H](O)C[C@H]2C(=O)N[C@@H](Cc2c[nH]c3ccccc23)C(=O)N[C@@H](CCNS(=O)(=O)N(C)C)C(=O)N[C@@H](Cc2cn(CC(=O)O)c3ccccc23)C(=O)N1C [Example 1022] ({CH2CO}-Y[NMeA]NP[X4]L[Hyp]W[X5][Trp(1-CH2COOH)][NMeNle][NMeNle]LCG-NH2; thioether N-14)	7.82
CCCC[C@H]1C(=O)N(C)[C@@H](CCCC)C(=O)N[C@@H](CC(C)C)C(=O)N[C@H](C(=O)NCC(N)=O)CSCC(=O)N[C@@H](Cc2ccc(O)cc2)C(=O)N(C)[C@@H](C)C(=O)N[C@@H](CC(N)=O)C(=O)N2CCC[C@H]2C(=O)N[C@@H](CNS(=O)(=O)N(C)C)C(=O)N[C@@H](CC(C)C)C(=O)N2C[C@H](O)C[C@H]2C(=O)N[C@@H](Cc2c[nH]c3ccccc23)C(=O)N[C@@H](CCN)C(=O)N[C@@H](Cc2cn(CC(=O)O)c3ccccc23)C(=O)N1C [Example 1023] ({CH2CO}-Y[NMeA]NP[X4]L[Hyp]W[Dab][Trp(1-CH2COOH)][NMeNle][NMeNle]LCG-NH2; thioether N-14)	8.17
CCCC[C@H]1C(=O)N(C)[C@@H](CCCC)C(=O)N[C@@H](CC(C)C)C(=O)N[C@H](C(=O)NCC(N)=O)CSCC(=O)N[C@@H](Cc2ccc(O)cc2)C(=O)N(C)[C@@H](C)C(=O)N[C@@H](CC(N)=O)C(=O)N2CCC[C@H]2C(=O)N[C@@H](CNC(=O)SC(C)(C)C)C(=O)N[C@@H](CC(C)C)C(=O)N2C[C@H](O)C[C@H]2C(=O)N[C@@H](Cc2c[nH]c3ccccc23)C(=O)N[C@@H](CCNC(=O)OC)C(=O)N[C@@H](Cc2cn(CC(=O)O)c3ccccc23)C(=O)N1C [Example 1024] ({CH2CO}-Y[NMeA]NP[Dap](X10)L[Hyp]W[Dab](Moc)[Trp(1-CH2COOH)][NMeNle][NMeNle]LCG-NH2; thioether N-14)	8.33
CCCC[C@H]1C(=O)N(C)[C@@H](CCCC)C(=O)N[C@@H](CC(C)C)C(=O)N[C@H](C(=O)NCC(N)=O)CSCC(=O)N[C@@H](Cc2ccc(O)cc2)C(=O)N(C)[C@@H](C)C(=O)N[C@@H](CC(N)=O)C(=O)N2CCC[C@H]2C(=O)N[C@@H](CNC(=O)SC(C)(C)C)C(=O)N[C@@H](CC(C)C)C(=O)N2C[C@H](O)C[C@H]2C(=O)N[C@@H](Cc2c[nH]c3ccccc23)C(=O)N[C@@H](CCNC(=O)SC(C)(C)C)C(=O)N[C@@H](Cc2cn(CC(=O)OC)c3ccccc23)C(=O)N1C [Example 1025] ({CH2CO}-Y[NMeA]NP[Dap](X10)L[Hyp]W[Dab](X10)[Trp(1-CH2CO2Me)][NMeNle][NMeNle]LCG-NH2; thioether N-14)	8.22
CCCC[C@H]1C(=O)N(C)[C@@H](CCCC)C(=O)N[C@@H](CC(C)C)C(=O)N[C@H](C(=O)NCC(N)=O)CSCC(=O)N[C@@H](Cc2ccc(O)cc2)C(=O)N(C)[C@@H](C)C(=O)N[C@@H](CC(N)=O)C(=O)N2CCC[C@H]2C(=O)N[C@@H](CNC(=S)NCC)C(=O)N[C@@H](CC(C)C)C(=O)N2C[C@H](O)C[C@H]2C(=O)N[C@@H](Cc2c[nH]c3ccccc23)C(=O)N[C@@H](CCNC(=S)NCC)C(=O)N[C@@H](Cc2cn(CC(=O)O)c3ccccc23)C(=O)N1C [Example 1026] ({CH2CO}-Y[NMeA]NP[X14]L[Hyp]W[X15][Trp(1-CH2COOH)][NMeNle][NMeNle]LCG-NH2; thioether N-14)	8.35
CCCC[C@H]1C(=O)N(C)[C@@H](CCCC)C(=O)N[C@@H](CC(C)C)C(=O)N[C@H](C(=O)NCC(N)=O)CSCC(=O)N[C@@H](Cc2ccc(O)cc2)C(=O)N(C)[C@@H](C)C(=O)N[C@H](CC(N)=O)C(=O)N2CCC[C@H]2C(=O)N[C@@H](CNC(=S)NC)C(=O)N[C@@H](CC(C)C)C(=O)N2C[C@H](O)C[C@H]2C(=O)N[C@@H](Cc2c[nH]c3ccccc23)C(=O)N[C@@H](CCNC(=S)NC)C(=O)N[C@@H](Cc2cn(CC(=O)O)c3ccccc23)C(=O)N1C [Example 1027] ({CH2CO}-Y[NMeA][dN]P[X11]L[Hyp]W[X12][Trp(1-CH2COOH)][NMeNle][NMeNle]LCG-NH2; thioether N-14)	8.70
CCCC[C@H]1C(=O)N(C)[C@@H](CCCC)C(=O)N[C@@H](CC(C)C)C(=O)N[C@H](C(=O)NCC(N)=O)CSCC(=O)N[C@@H](Cc2ccc(O)cc2)C(=O)N(C)[C@@H](C)C(=O)N[C@@H](CC(N)=O)C(=O)N2CCC[C@H]2C(=O)N[C@@H](CNC(=O)NCC)C(=O)N[C@@H](CC(C)C)C(=O)N2C[C@H](O)C[C@H]2C(=O)N[C@@H](Cc2c[nH]c3ccccc23)C(=O)N[C@@H](CCNC(=O)NCC)C(=O)N[C@@H](Cc2cn(CC(=O)O)c3ccccc23)C(=O)N1C [Example 1029] ({CH2CO}-Y[NMeA]NP[Dap]([CO-NHEt])L[Hyp]W[Dab]([CO-NHEt])[Trp(1-CH2COOH)][NMeNle][NMeNle]LCG-NH2; thioether N-14)	8.31
